# Reference: PubChem BioAssay (NCI)
#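 Growth conditions: 96-well plates. Treatment: test compound, 48 hours, 5 concentrations. Analysis: linear interpolation between bracketing concentrations; unreached endpoints set to highest concentration. TGI: total growth inhibition.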
# What was measured:
# Test in all cases: NCI-60 cell line screen, 48 h
# DU-145 prostate = tested on: DU-145 prostate
# OVCAR-8 ovarian = tested on: OVCAR-8 ovarian
# SR leukemia = tested on: SR leukemia
# TK-10 renal = tested on: TK-10 renal
# SK-OV-3 ovarian = tested on: SK-OV-3 ovarian
# SK-MEL-2 melanoma = tested on: SK-MEL-2 melanoma
SMILES,TGI (DU-145 prostate),TGI (OVCAR-8 ovarian),TGI (SR leukemia),TGI (TK-10 renal),TGI (SK-OV-3 ovarian),TGI (SK-MEL-2 melanoma)
CCn1c(-c2ccccc2)nc2c1C(=O)c1ccccc1C2=O,> 100 µM,35 µM,> 100 µM,85.9 µM,86 µM,–
O=C(Nc1ccccc1)Nn1c(-c2cccs2)nc2ccc(I)cc2c1=O,52.3 µM,> 100 µM,47.9 µM,60.6 µM,71.2 µM,–
O=C1C=CC[C@H](/C=C/C[C@@H](O)C[C@H](O)/C=C/c2ccccc2)O1,26.3 µM,32.9 µM,–,24 µM,28.3 µM,26.3 µM
C=CCOC(=O)CCCCCCCCCCCCCCCOC(=O)c1c(CCC[C@@H](C)O[Si](C)(C)C(C)(C)C)nc(=O)n2c1CC[C@H]2CC1(CC/C=C\[C@H](CC)O[Si](C(C)C)(C(C)C)C(C)C)OCCO1,> 100 µM,–,–,> 100 µM,> 100 µM,> 100 µM
COC(=O)c1cc(-c2ccc(-c3ccc(O)cc3)cc2)cc(-c2ccc(-c3ccc(O)cc3)cc2)c1,–,–,–,26.7 µM,29.6 µM,33.7 µM
C[C@@H]1OC(=O)C[C@H]2CC(=O)N(CCC3CN(S(=O)(=O)C(F)(F)F)c4ccc(Cc5ccc6c(c5)C(CCN5C[C@H]7[C@@H](CC(=O)O[C@H]7C)CC5=O)CN6S(=O)(=O)C(F)(F)F)cc43)C[C@@H]21 (some centres undefined),> 100 µM,> 100 µM,–,> 100 µM,> 100 µM,> 100 µM
O=C1OC2c3ccccc3C(=O)C2(c2ccccc2)N1c1ccccc1 (centres undefined),> 200 µM,> 200 µM,–,> 200 µM,> 200 µM,> 200 µM
NC1=NN(c2ccccc2)C2(c3ccncc3C(=O)O)C1C(N)=NN2c1ccccc1 (centres undefined),> 100 µM,> 100 µM,–,–,> 100 µM,> 100 µM
CCN(CC)CCNc1ccc2ncn3c4c(OC)cccc4c(=O)c1c23,24.2 µM,55.6 µM,20.8 µM,77.7 µM,24 µM,–
CC(=O)O[C@H]1CC[C@H]2[C@@H]3CCC4=C(C(=O)C=CC4(C)OC(C)=O)[C@H]3CC[C@]12C (some centres undefined),> 100 µM,> 100 µM,> 100 µM,> 100 µM,–,–
CC(C)CCNC(=O)c1ccc(CNC(=O)/C=C/c2csc(-c3ccccc3)n2)cc1,> 100 µM,79.2 µM,–,> 100 µM,> 100 µM,> 100 µM
C[N+](C)(C)C1(C(=O)[O-])CC1,> 100 µM,> 100 µM,> 100 µM,> 100 µM,–,–
O=C(N/N=C/C=C/c1ccc([N+](=O)[O-])o1)c1ccc(Br)s1,> 100 µM,46.7 µM,–,46.5 µM,> 100 µM,56.3 µM
